Experimental findings from ChEMBL document CHEMBL4610027, “Identification of Mycobacterium tuberculosis CtpF as a target for designing new antituberculous compounds” (Bioorg Med Chem, 2020) are described below.

A short description of the assay: Inhibition of calcium stimulated Mycobacterium tuberculosis H37Ra CtpF mutant ATPase activity using Na2ATP as substrate preincubated for 30 mins followed by substrate addition and measured after 30 mins by colorimetric analysis.
Consider `CCC[C@H](C)NC(=O)CSc1nc2cc(S(=O)(=O)Nc3ccccc3OC)ccc2o1`, for which the IC50 was found to be 109 µM.

As for `COCC(=O)Nc1c(C(=O)OC)n(CCC(C)C)c2ncc(N[C@@H](C)C(C)(C)O)cc12`, the IC50 turned out to be 38.4 µM.

As for `NS(=O)(=O)[C@H]1CC=C(CNC(=O)CCCc2c[nH]c3ccccc23)S1`, the IC50 was determined as 100 µM.

Turning to `CCCCC(=O)Nc1cccc(C(=O)NCCCNc2cccnc2)c1`, the IC50 is 96.9 µM. For `C[C@@H](OC(=O)CCCNC1=NS(=O)(=O)c2ccccc21)C(=O)c1c[nH]c2ccccc12` the value was 102 µM; for `O=C(CCCC[C@@H]1SC[C@@H]2NC(=O)N[C@@H]21)NCc1cn(-c2ccccc2)nc1-c1ccccc1`, 76.1 µM; for `CC(=O)C1=C(O)[C@@H]2[C@H]3c4c[nH]c5cccc(c45)C[C@H]3C(C)(C)N2C1=O` [CYCLOPIAZONIC ACID], 94.5 µM.

What is called IC50 is the concentration that gives 50% inhibition.
